Reference: patent publication US20180028477A1, “TREATMENT OF CARDIAC REMODELING AND OTHER HEART CONDITIONS” (C & C BIOPHARMA, LLC, priority 2013, published 2018)
Several values for one entry are separate records, joined by “and”; a condition that tells them apart may be missing. Equal values may be shown once. Entries after “also recorded” stand apart in the source; their conditions may differ.

Assays:
a variety of cells = assay: Toxicity in the culture of a variety of cells; format: cell-based
[1] = Tolerability in mice, daily dosing for four weeks; format: in vivo; conditions: 100 mg/Kg daily for four weeks
[2] = Serum chemistries in mice subjected to TAC and treated with 8MI (Example 6); format: in vivo; conditions: for ALT / BUN / Calcium / Creatinine / Glucose / Total Protein: serum, TAC
Description: The effects of 8MI on hypertrophy in a model of moderate pressure overload were tested further (FIGS. 5A-5E). 8MI or its vehicle (DMSO) was administered over a range of concentrations immediately prior to and for 21 days following transverse aortic coarctation (TAC). All experiments were performed on 2-3 month old wild type C57/BL/6 mice. Cardiac hypertrophy was induced by TAC as described in Wei et. al. 2008. Pressure gradients induced by TAC were evaluated postoperatively by pulsed-wave Doppler echocardiography to confirm equivalent gradients in all animals (45±5 mmHg). 8MI was delivered via tail vein injection one day prior to surgical intervention and then daily for 21 days. Blood samples were obtained at sacrifice on day 21 after surgery, and serum was frozen at […] until analysis
Prior to sacrifice, serum was extracted from the blood of the mice treated as described in Example 4.

[3] = test system: cardiac structural and hypertrophy-associated genes (Col1, Col3, ANP, BNP, SERCA2, alpha- and beta-MHC); assay: Quantitative realtime PCR of cardiac structural and hypertrophy-associated genes in left ventricular tissue after TAC (Example 7); format: in vivo, mice; conditions: mRNA, 21 days after TAC
Description: In parallel samples from the experiment described in Example 4, the expression of a group of cardiac structural and hypertrophy-associated genes were quantified. Total RNA was extracted from left ventricular tissue using TRIzol Reagent (Invitrogen, Carlsbad, Calif.). cDNA was amplified using TaqMan Universal PCR master mix reagent (Applied Biosystems, Foster City, Calif.) under the following conditions: 2 min at 50° C., 10 min at 95° C., 40 cycles: 15 s at 95° C. and 1 min at 60° C. in an ABI 7900HT thermocycler. mRNA expression levels were normalized to those of the internal reference 18S rRNA. All samples were run in duplicates. The following primer sets were used: ANP, BNP, SERCA, MHC, and 18S. Data was analyzed using software RQ manager 1.2 from Applied Biosystems.

GATA4 = GATA4 acetylation in myocardial lysates, immunoprecipitation/Western (Example 9); format: in vivo; conditions: TAC-operated mice, same conditions
Description: Acetyl-MEF2 and acetyl-GATA4 were determined as described in Example 9 in myocardial lysates of TAC- or sham-operated mice treated with the indicated doses of 8MI, or its vehicle (0), as indicated. […] MEF2 acetylation is increased by TAC and reduced by 8MI. Myocardial lysates were immunoprecipitated with either anti-pan MEF2 or GATA4 antibodies, and probed with antibodies against MEF2, GATA4 or acetyl-lysine (control). The quantified data shown in FIG. 9 is from 3 mice per group and normalized to total acetyl-lysine (western blots are not shown).
MEF2 acetylation was determined in myocardial tissue from sham- and TAC-operated mice in the presence of vehicle or 8MI, under the experimental conditions described in Example 4. Protein samples were collected in RIPA (Sigma). […] of protein samples were incubated with 5 μg of acetyl lysine or GATA4 antibodies (Upstate, Charlottesville, Va.) or MEF2 antibody (Santa Cruz Biotechnology, Santa Cruz, Calif.) (5 μg). The immune-complexes were captured using TrueBlot sepharose beads and subjected to Western analysis. The immune complexes were resolved on SDS-PAGE and transferred to nitrocellulose membranes. Membranes were blocked with 5% milk in 0.5% TBS-T for 1 hour at room temperature followed by incubation in primary antibody at appropriate dilutions overnight. […]

[4] = Metabolic stability in human liver microsomes fortified with NADPH (Example 11); format: in vitro ADME; design: CLint scaled: dose or concentration left out as unconfirmed
From the text: Drug clearance is a measure of the ability of the body or an organ to eliminate a drug from the blood circulation. Systemic clearance is a measure of the ability of the entire body to eliminate the drug. Organ clearance is a measure of the ability of a particular organ (hepatic or renal) to eliminate the drug. For hepatic clearance, the liver is the major organ for drug metabolism and the key organ for drug clearance. Human liver microsomes (HLM) fortified with NADPH is a standard way to measure in vitro metabolism and predict in vivo clearance. CLint (intrinsic clearance) is the link between in vitro and in vivo studies, which can be estimated based on the mono-exponential decay model: Ct=C X e^−kt.
Human liver microsomes fortified with NADPH is a standard approach to evaluate metabolic stability mediated by CYP (cytochrome P450) enzymes in vitro. The reaction mixture (0.4 mL) contained 0.5 mg/mL human liver microsomes, 100 mM phosphate buffer (pH 7.4) and […] of test compounds. The mixture was first warmed up for 5 min in a 37° C. shaking water bath and then NADPH at a final concentration of 1 mM was added to initiate the reaction. Aliquots […] were taken at specified time points and mixed with ice-cold methanol (containing internal standard) to stop the reaction. The mixture was vortexed briefly and centrifuged for protein precipitation. An aliquot of […] supernatant was subject to LC-MS/MS analysis. The percentage of compound disappearance was used to calculate the rate of metabolism.

[5] = 8MI 5 mg/kg, individual mice #7-9
[6] = 8MI 20 mg/kg, individual mice #10-12
[7] = 8MI 40 mg/kg, individual mice #13-15

For `Nc1ccccc1NC(=O)CCCCCC(=O)Nc1cccc(Br)c1` [8MI], the “concentration up to which no apparent toxicity was seen” value (a variety of cells) was “up to 20 μM”, the “signs of kidney or liver damage or other adverse effects” value [1] was “no sign of kidney or liver damage or other adverse effects; also recorded: without any signs of kidney or liver disease or other adverse effects” and the “tolerability from serum chemistries” value ([2]; TAC mice, 5-40 mg/kg, 21 days) was “well tolerated”. For the same compound, the “mice with significant renal and/or hepatic dysfunction induced by TAC” value ([2]; mice receiving any dose of 8MI (control: 2 out of 3)) was 1 out of 9, the ALT [2, 5] was 47 U/L and 53 U/L and 58 U/L and the BUN [2, 5] was 26 mg/dL and 21 mg/dL and 25 mg/dL. For the same compound, the Calcium [2, 5] was 11.7 mg/dL and 9.7 mg/dL and 11 mg/dL, the Creatinine [2, 5] was 0.2 mg/dL and the Glucose [2, 5] was 375 mg/dL and 158 mg/dL and 294 mg/dL. The “Total Protein” value [2, 5] was 5.6 g/dL and 5.8 g/dL and 5.4 g/dL, the ALT [2, 6] was 51 U/L and 73 U/L and 57 U/L and the BUN [2, 6] was 21 mg/dL and 19 mg/dL and 28 mg/dL. For the same compound, the Calcium [2, 6] was 9.9 mg/dL and 10.3 mg/dL and 11.1 mg/dL, the Creatinine [2, 6] was 0.2 mg/dL and the Glucose [2, 6] was 224 mg/dL and 177 mg/dL and 326 mg/dL. For the same compound, the “Total Protein” value [2, 6] was 5.3 g/dL and 5.6 g/dL and 6.0 g/dL, the ALT [2, 7] was 56 U/L and 308 U/L and 60 U/L and the BUN [2, 7] was 21 mg/dL and 26 mg/dL and 23 mg/dL. The Calcium [2, 7] was 10.6 mg/dL and 8.7 mg/dL and 10.1 mg/dL, the Creatinine [2, 7] was 0.3 mg/dL (2×) and 0.6 mg/dL and the Glucose [2, 7] was 455 mg/dL and 140 mg/dL and 252 mg/dL. The “Total Protein” value [2, 7] was 6.2 g/dL and 5.5 g/dL and 5.7 g/dL, the “stress-induced expression of B-type natriuretic peptide (BNP)” value [3] was “markedly attenuated” and the “stress-induced expression of Collagen Type 1 (Col1)” value [3] was “markedly attenuated”. The “stress-induced expression of Collagen Type 3 (Col3)” value [3] was “markedly attenuated”, the “stress-induced expression of SERCA2” value [3] was “markedly attenuated” and the “stress-induced expression of alpha-myosin heavy chain” value [3] was “markedly attenuated”. For the same compound, the “stress-induced expression of atrial natriuretic peptide (ANP)” value [3] was “markedly attenuated”, the “stress-induced expression of beta-myosin heavy chain” value [3] was “markedly attenuated” and the “total and Ac-GATA4 levels” value (GATA4) was “no significant change”. The “K (rate constant)” value ([4]; 0.5 mg/mL human liver microsomes, 1 mM NADPH, pH 7.4, 37° C.) was 0.0046 min⁻¹, the “Clhp (hepatic clearance)” value ([4]; human liver microsomes) was 3.85 mL/min/kg and the CLint scaled ([4]; pH 7.4, human liver microsomes, from mono-exponential decay model, read-out: Clint (intrinsic clearance)) was 4.73 mL/min/kg.
